Laboratory results taken from patent EP0600342A1, “Hispidospermidin and pharmaceutical compositions” (F. HOFFMANN-LA ROCHE AG, priority 1992, dated 1994).
“Also recorded” adds a separate entry of the source.

Assays:
[1] = tested on: partially purified rat brain PLC; experiment: Inhibitory activity against PLC (hydrolysis of radiolabelled PI); format: biochemical; conditions: 250 µM PI substrate, 2 mM CaCl₂, Tris-acetate buffer pH 5.5, 20 min at 30 °C; read-out: IC₅₀
Procedure: Inhibitory activity of hispidospermidin against PLC was measured. The assay mixture (0.1 ml) contained 200 mM Tris-acetate buffer (pH 5.5), 2 mM CaCl₂, 250 µM PI (suspended in the buffer, specific activity: 800 dpm/nmole) and enzyme. In the standard assay, 20 µl of inhibitor in 15 mM Tis-HCl buffer (pH 7.5) was added to the substrate suspension (50 µl). The reaction was started with addition of the enzyme solution prepared from partially purified rat brain PLC (30 µl, ca. 5 µg protein) and incubated for 20 min. at 30 °C. The reaction was terminated by adding 0.3 ml of unlabeled PI (200 µM) solution containing 1 mg/ml of bovine serum albumin and 1 mM EGTA, followed by adding of 0.3 ml of 7.5% ice cold trichloroacetic acid containing 3 mM CaCl₂. Under the conditions, the enzyme hydrolyzed about 30 % of substrate in the assay mixture. As a positive control showing 100% inhibition of PLC, 20 µl of 25 mM EDTA was added to the assay mixture. The incubation mixture was kept on ice for 10 min asn centrifuged at 1,700 x g for 10 min. The radioactivity of an aliquot (0.2 ml) of the supernatant was measured by liquid scintillation counter (ALOKA).

[2] = Solubility (physico-chemical properties); format: physicochemical; conditions: qualitative, by solvent
Acute toxicity = format: in vivo; conditions: no species, dose or route stated

Row | IC50 [1] [µM] | Structure (SMILES) | Solubility [2] | Acute toxicity (Acute toxicity)
1 | 314 | CCN(CC)CCCC(C)Nc1c2ccc(Cl)cc2nc2ccc(OC)cc12 (stereo not shown) [Quinacrine] |  | 
2 | 59.3 | NCCCNCCCCNCCCN [Sperimine] |  | 
3 | 29.9 | NC[C@H]1O[C@H](O[C@H]2[C@H](O)[C@@H](O[C@H]3O[C@H](CO)[C@@H](O)[C@H](N)[C@H]3O)[C@H](N)C[C@@H]2N)[C@H](N)C[C@@H]1O [Tobramycin] |  | 
4 | 150 | CN1CCN(CCCN2c3ccccc3Sc3ccc(C(F)(F)F)cc32)CC1 [Trifluoperazine] |  | 

Row | Structure (SMILES) | IC50 [1] [µM] | Solubility [2] | Acute toxicity (Acute toxicity)
5 | C[C@@H]1CC[C@H]2[C@]13CC[C@@]1(C)O[C@]2(C)[C@@H](NCCCCN(C)CCCN(C)C)[C@H]1C3 [Hispidospermidin, hispidospermidin] | 15.7 | Soluble in MeOH, CHCl₃, acetone, acidic water; also recorded: Insoluble in water | not observed
